What was measured:
[1] = system: prenylation of GST-Rig; assay: In vitro prenylation assay with farnesyl transferase inhibitor (mevalonate prenylation in rabbit reticulocyte lysate); type: biochemical, human
From the text: In this Example, experiments performed to determine the in vitro prenylation characteristics of Rig, Ras and Rap are described. Radiolabelled farnesyl pyrophosphate, radiolabelled geranylgeranyl pyrophosphate or radiolabelled mevalonate were alternatively used as substrates in these assays, to determine the prenylation specificity of each GTPase protein. In addition, the ability of a farnesyl transferase inhibitor (FTI; namely, FTI-277, Calbiochem, Catalog No. 344555) to inhibit the prenylation of Rig, Ras and Rap was examined. Purified GST-Rig, GST-H-Ras (G12V) and GST-Rap fusion proteins were used in the in vitro prenylation experiments. The H-Ras(G12V) protein was included in the prenylation assays to serve as a positive control (Clark et al., Proc. Natl. Acad. Sci. USA 90:4887-4891 [1993]). […]
(§1) Each in vitro prenylation reaction contained approximately 1-2 μg alternatively of GST, GST-Rig, GST-H-Ras(G12V) or GST-Rap. […] The gel was soaked in fixing buffer (water with 10% methanol and 10% acetic acid), soaked in autofluor (National Diagnostics, Catalog No. LS315) and analyzed by autoradiography.
(§2) In a second experiment, the sensitivity of mevalonate prenylation of GST-Rig, GST-Ras and GST-Rap, to increasing amounts of farnesyl transferase inhibitor (FTI-277; Calbiochem) was assessed. […] The gel was fixed, soaked in autofluor and analyzed by autoradiography.

[2] = system: prenylation of GST-Rap; assay: as above; type: biochemical; settings: 1-100 nM FTI concentration range
From the text: (§3) In this Example, experiments performed to determine the in vitro prenylation characteristics of Rig, Ras and Rap are described. Radiolabelled farnesyl pyrophosphate, radiolabelled geranylgeranyl pyrophosphate or radiolabelled mevalonate were alternatively used as substrates in these assays, to determine the prenylation specificity of each GTPase protein. In addition, the ability of a farnesyl transferase inhibitor (FTI; namely, FTI-277, Calbiochem, Catalog No. 344555) to inhibit the prenylation of Rig, Ras and Rap was examined. Purified GST-Rig, GST-H-Ras (G12V) and GST-Rap fusion proteins were used in the in vitro prenylation experiments. The H-Ras(G12V) protein was included in the prenylation assays to serve as a positive control (Clark et al., Proc. Natl. Acad. Sci. USA 90:4887-4891 [1993]).
(§4) The GST-Rig fusion construct was made by cloning a restriction fragment containing the Rig ORF in frame into the BamHI/EcoRI sites of pGEX-2T (Pharmacia). The vector encoding GST-H-Ras(G12V) was made by subcloning an H-Ras (G12V) BamHI/EcoRI PCR product into the BamHI/EcoRI sites of the pGEX-2T vector. The product was confirmed by sequencing. The GST-Rap fusion construct was produced as described by Clark et al. (Clark et al., J. Biol. Chem., 272:10608-10615 [1997]).
(§5) The resulting plasmids were transformed into competent XL1-Blue Escherichia coli (Stratagene), and the GST-fusion proteins produced by the bacteria were isolated by standard techniques, according to the manufacturer's protocol (Pharmacia), with minor modification (inclusion of 100 μM GTP and the omission of EDTA from the protein collection/purification buffers). Briefly, bacteria were grown to an OD600 of 0.1 in LB broth. At that time, […] isopropyl-β-thiogalactopyranoside (IPTG) was added to the culture. Four hours following IPTG induction, the bacteria were pelleted at 3,000 RPM for 20 minutes, and resuspended in 5 mL lysis buffer (phosphate buffered saline [PBS] containing 100 μM GTP, 0.1% Triton X−100, leupeptin and aprotinin). The lysate was sonicated, then clarified by centrifugation at 10,000 RPM for 30 minutes. The resulting lysate was used as starting material for glutathione-conjugated agarose bead purification (Sigma) using standard techniques. […]
as §1, §2

[3] = system: prenylation of GST-Ras(G12V); assay: as above; type: biochemical
From the text: as §3, §4, §5, §1, §2

[4] = target: T1, Raf-1 (Homo sapiens, UniProt P04049); assay: In vivo Rig/Raf-1 co-immunoprecipitation in HEK-293T cells; type: binding; settings: HEK-293T cells co-transfected with HA-Raf-1
T1 construct: HA-RAF-1 fusion protein expression vector was produced by generating a full-length BamHI-compatible PCR fragment from a Raf-1 template; expressed in transfected cells; host or cells: HEK-293T
From the text: In this Example, experiments to assess the ability of Rig and Raf-1 to interact in vivo are described. These experiments (results shown in FIG. 9) used a standard in vivo co-transfection/co-immunoprecipitation protocol, where cultured mammalian cells were cotransfected with FLAG-tagged and/or hemagglutinin (HA)-tagged mammalian expression vector constructs, followed by immunoprecipitation with an anti-Raf-1 antibody and Western immunoblotting using either anti-FLAG or anti-HA primary detection antibodies. The assay was conducted using HEK-293T cells, a transformed human embryonal kidney cell line.
Briefly, HA-RAF-1 fusion protein expression vector was produced by generating a full-length BamHI-compatible PCR fragment from a Raf-1 template (Fabian et al., Proc. Natl. Acad.Sci. USA 91:5982-5986 [1994]), then cloned into the BamHI site of pCGN, which also encodes the HA epitope (Fiordalisi et al, Methods Enzymol., 332:3-36 [2001]). The construct was confirmed by sequencing.
A pCDNA3.1 (FLAG) expression vector was produced by inserting the FLAG epitope in-frame upstream of the BamHI restriction site of the multiple cloning region of pCDNA3.1 (Invitrogen). […]
Following transfection, the cells were cultured in DMEM containing 1% FBS for 48 hours. […] Membranes were then incubated in enhanced chemiluminescent substrate (ECL; Amersham) and the signal was detected on X-ray film.

[5] = FTI 1-100 nM, [3H]-mevalonate, one hour at 30 °C

Molecule: COC(=O)[C@H](CCSC)NC(=O)c1ccc(NC[C@@H](N)CS)cc1-c1ccccc1 [FTI-277]
- farnesylation of GST-Rig at 100 nM FTI ([1]; 100 nM FTI concentration): completely abolished
- sensitivity of mevalonate prenylation (radiolabelling) of GST-Rig to FTI [1, 5]: sensitive
- sensitivity of GST-Rap farnesylation by mevalonate to FTI [2]: did not show sensitivity
- farnesylation of GST-Ras at 100 nM FTI ([3]; 100 nM FTI concentration): completely abolished
- sensitivity of mevalonate prenylation (radiolabelling) of GST-Ras to FTI [3, 5]: sensitive
- sensitivity of GST-Ras prenylation relative to GST-Rig ([3]; comparison of the two proteins, FTI 1-100 nM): greater sensitivity

B1: FLAG-Rig: FLAG-tagged recombinant Rig protein expressed from pCDNA-FLAG (protein)
chain: MPEQSNDYRVVVFGAGGVGKSSLVLRFVKGTFRDTYIPTIEDTYRQVISCDKSVCTLQITDTTGSHQFPAMQRLSISKGHAFILVFSVTSKQSLEELGPIYKLIVQIKGSVEDIPVMLVGNKCDETQREVDTREAQAVAQEWKCAFMETSAKMNYNVKELFQELLTLETRRNMSLNIDGKRSGKQKRTDRVKGKCTLM
modifications: left off: small tags and cut ends
- co-precipitation with Raf-1 (anti-Raf-1 immunoprecipitation) [4]: coprecipitated
